Measured values: patent publication US7097865B2, “Inhibition of CYP450 1A2, 2A6, 2C9, 2C19, 2D6, 2E1, and 3A4 in cryopreserved human hepatocytes by a Tripterygium Wilfordii Hook. F. extract” (Novemed Group Limited, priority 2002, dated 2006)
Blank lines part the entries; values can stand above or below the compound they belong to.

Legend:
CYP2A6 = CYP2A6 (Homo sapiens, UniProt P11509); details: Tranylcypromine 3 μM
CYP1A2 = CYP1A2 (Homo sapiens, UniProt P05177); assay: in vitro; details: both, hepatocytes
From the text: CYP1A2 activity was characterized by the formation of acetaminophen from phenacetin.

CYP2C19 = CYP2C19 (Homo sapiens, UniProt P33261); assay: in vitro; details: both, pooled cryopreserved human hepatocytes in suspension, probe S-mephenytoin (20 μM)
CYP2C9 [1] = target: T1, CYP2C9 (Homo sapiens, UniProt P11712); assay: in vitro; details: both, hepatocytes
CYP2C9 [2] = target: T1, CYP2C9; details: Sulfaphenazole 10 μM

Chain of CYP2A6 (P11509 whole entry): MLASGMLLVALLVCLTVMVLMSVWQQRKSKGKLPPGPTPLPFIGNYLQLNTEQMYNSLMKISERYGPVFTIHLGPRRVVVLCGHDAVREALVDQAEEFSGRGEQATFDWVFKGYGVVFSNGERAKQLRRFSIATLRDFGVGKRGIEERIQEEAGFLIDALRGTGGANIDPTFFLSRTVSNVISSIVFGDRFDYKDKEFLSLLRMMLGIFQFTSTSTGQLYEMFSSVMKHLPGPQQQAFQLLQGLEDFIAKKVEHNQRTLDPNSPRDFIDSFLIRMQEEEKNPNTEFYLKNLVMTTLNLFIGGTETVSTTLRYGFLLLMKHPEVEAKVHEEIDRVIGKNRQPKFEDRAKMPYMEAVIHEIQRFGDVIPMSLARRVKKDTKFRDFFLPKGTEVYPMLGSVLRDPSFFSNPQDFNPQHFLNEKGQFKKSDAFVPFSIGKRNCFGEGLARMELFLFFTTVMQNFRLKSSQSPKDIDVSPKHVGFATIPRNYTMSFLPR
Chain of CYP1A2 (P05177 whole entry): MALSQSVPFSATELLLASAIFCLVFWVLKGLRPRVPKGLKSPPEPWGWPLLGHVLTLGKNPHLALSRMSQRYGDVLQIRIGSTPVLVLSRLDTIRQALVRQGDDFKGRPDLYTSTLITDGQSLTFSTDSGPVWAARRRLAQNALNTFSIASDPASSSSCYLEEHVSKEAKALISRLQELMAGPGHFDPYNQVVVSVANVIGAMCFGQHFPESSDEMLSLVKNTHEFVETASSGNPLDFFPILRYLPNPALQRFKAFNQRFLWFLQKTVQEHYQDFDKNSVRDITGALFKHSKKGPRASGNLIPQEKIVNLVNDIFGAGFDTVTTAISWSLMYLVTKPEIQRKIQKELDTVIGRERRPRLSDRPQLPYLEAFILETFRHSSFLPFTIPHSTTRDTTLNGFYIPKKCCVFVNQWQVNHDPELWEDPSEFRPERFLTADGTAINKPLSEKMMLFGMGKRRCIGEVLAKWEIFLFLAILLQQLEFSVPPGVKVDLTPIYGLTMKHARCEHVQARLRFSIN
T1 sequence (P11712 whole entry): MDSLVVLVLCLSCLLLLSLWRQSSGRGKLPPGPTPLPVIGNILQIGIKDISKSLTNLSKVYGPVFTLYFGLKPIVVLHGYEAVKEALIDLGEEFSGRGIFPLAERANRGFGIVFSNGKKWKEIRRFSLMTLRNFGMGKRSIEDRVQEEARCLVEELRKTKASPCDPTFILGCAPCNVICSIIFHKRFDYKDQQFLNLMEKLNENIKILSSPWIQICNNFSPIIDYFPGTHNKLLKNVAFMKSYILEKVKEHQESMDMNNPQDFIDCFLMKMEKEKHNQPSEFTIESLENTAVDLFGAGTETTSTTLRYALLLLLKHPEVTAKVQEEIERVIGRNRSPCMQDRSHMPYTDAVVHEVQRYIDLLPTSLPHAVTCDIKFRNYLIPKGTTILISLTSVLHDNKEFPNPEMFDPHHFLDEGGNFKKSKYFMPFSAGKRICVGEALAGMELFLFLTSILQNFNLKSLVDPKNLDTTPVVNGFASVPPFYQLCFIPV
Chain of CYP2C19 (P33261 whole entry): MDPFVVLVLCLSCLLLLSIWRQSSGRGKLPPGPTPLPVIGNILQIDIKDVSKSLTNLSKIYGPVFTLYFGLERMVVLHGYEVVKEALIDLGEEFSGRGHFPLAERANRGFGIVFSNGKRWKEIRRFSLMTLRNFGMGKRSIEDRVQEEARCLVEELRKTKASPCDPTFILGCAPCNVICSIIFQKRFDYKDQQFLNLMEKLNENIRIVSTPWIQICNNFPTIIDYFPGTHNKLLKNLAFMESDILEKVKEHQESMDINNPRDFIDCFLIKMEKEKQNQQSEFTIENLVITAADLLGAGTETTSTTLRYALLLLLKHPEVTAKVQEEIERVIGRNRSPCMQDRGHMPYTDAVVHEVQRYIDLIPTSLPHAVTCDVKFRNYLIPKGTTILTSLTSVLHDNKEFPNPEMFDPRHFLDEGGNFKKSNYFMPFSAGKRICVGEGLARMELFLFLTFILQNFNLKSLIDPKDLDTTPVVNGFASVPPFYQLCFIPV

SMILES: N[C@@H]1C[C@H]1c1ccccc1 (racemic) [Tranylcypromine, tranylcypromine]
CYP2A6 % Inhibition (CYP2A6): 64.1%
CYP2A6 activity % VC (CYP2A6): 35.9%

activity at 60 min, 1 μM (CYP1A2): 27.9%
inhibition at 60 min, 1 μM (CYP1A2): 72.1%
SMILES: Cc1nc2c([nH]1)c(=O)n(C)c(=O)n2Cc1ccco1 [Furafylline, furafylline]

activity at 60 min, 25 μM (CYP2C19): 73.6%
inhibition at 60 min, 25 μM (CYP2C19): 26.4%
SMILES: COc1ccc2[nH]c([S+]([O-])Cc3ncc(C)c(OC)c3C)nc2c1 (centres unmarked) [Omeprazole, omeprazole]

SMILES: Nc1ccc(S(=O)(=O)Nc2ccnn2-c2ccccc2)cc1 [Sulfaphenazole, sulfaphenazole]
activity at 60 min, 10 μM (CYP2C9 [1]): 5.02%
CYP2C9 % Inhibition (CYP2C9 [2]): 95.0%
